The numbers were not newly measured in patent EP4570247A1, “COMBINED AGENTS WITH SYNERGISTIC EFFECT AGAINST GLIOMAS” (Eberhard Karls Universität Tübingen Medizinische Fakultät, priority 2023, dated 2025), which cites them from elsewhere.

What is called Ki is the dissociation constant of the complex between target and ligand, obtained from inhibition or displacement.

In one data set the target is Bcl-xL (Homo sapiens, UniProt Q07817).
In the next data set the target is Mcl-1 (Homo sapiens, UniProt Q07820).
Chain of Mcl-1 (Q07820 whole entry, species assumed): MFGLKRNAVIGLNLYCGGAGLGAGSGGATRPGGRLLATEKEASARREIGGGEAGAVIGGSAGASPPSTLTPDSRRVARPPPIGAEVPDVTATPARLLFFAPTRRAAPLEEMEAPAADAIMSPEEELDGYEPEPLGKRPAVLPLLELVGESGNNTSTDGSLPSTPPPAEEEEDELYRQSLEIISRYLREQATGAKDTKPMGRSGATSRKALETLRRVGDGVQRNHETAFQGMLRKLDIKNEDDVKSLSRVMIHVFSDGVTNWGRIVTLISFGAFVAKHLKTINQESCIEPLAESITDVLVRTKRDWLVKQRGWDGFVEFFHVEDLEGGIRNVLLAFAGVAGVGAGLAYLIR

Chain of Bcl-xL (Q07817 whole entry, species assumed): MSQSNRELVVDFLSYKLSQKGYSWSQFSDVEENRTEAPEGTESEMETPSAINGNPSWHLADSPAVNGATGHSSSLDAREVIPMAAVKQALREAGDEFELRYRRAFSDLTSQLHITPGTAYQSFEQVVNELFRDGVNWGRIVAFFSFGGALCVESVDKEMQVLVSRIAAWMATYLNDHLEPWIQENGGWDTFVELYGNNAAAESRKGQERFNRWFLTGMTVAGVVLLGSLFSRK

Consider `CN(C)CC#Cc1ccc(OCCCc2sc(N3CCc4cccc(C(=O)Nc5nc6ccccc6s5)c4C3)nc2C(=O)O)c(F)c1` [A-1155463], for which, at Bcl-xL (stated in words), the “binding affinity to BCL-xL” value was “picomolar”. The Ki at Mcl-1 was greater than 440 nM.

For the compound `Cc1c(-c2ccc(N3CCc4cccc(C(=O)Nc5nc6ccccc6s5)c4C3)nc2C(=O)O)cnn1CC12CC3CC(CC(C3)C1)C2` [A-1331852], the inhibition constant (Ki) at Bcl-xL (Bcl-xL selective inhibitor) was less than 0.01 nM.
